The values below come from ChEMBL document CHEMBL1129017, “Chemical feasibility studies of a potential coumarin-based prodrug system” (Bioorg Med Chem Lett, 1996).

This data set is described as follows: Compound was evaluated for its half life period. Format: ADME.

For the compound `COc1ccc(NC(=O)/C=C\c2ccccc2OC(C)=O)cc1`, the half-life (usually the time in which the quantity being followed falls by half) is 1.63 min. In turn, `CC(=O)Oc1ccccc1/C=C\C(=O)NCc1ccccc1` gave a half-life of 16.3 min. The result for `CC(=O)Oc1ccccc1/C=C\C(=O)N(C)Cc1ccccc1` reads 31.2 min.
